According to the kinase profiling compilation of Christmann-Franck et al. (2016):

Key:
Assay in all cases: KINOMEscan competition binding
Settings in all cases: compound 10.0 µM
MAPK13 (human) = MAPK13 (human) (UniProt O15264)
[1] = system: BRAF (human), P15056 [V600E]
[2] = system: EGFR (human), P00533 [G719C]
PIP4K2C (human) = PIP4K2C (human) (UniProt Q8TBX8)
MAPK4 (human) = MAPK4 (human) (UniProt P31152)
RIPK2 (human) = RIPK2 (human) (UniProt O43353)
PAK1 (human) = PAK1 (human) (UniProt Q13153)
DDR2 (human) = DDR2 (human) (UniProt Q16832)
PAK3 (human) = PAK3 (human) (UniProt O75914)
IGF1R (human) = IGF1R (human) (UniProt P08069)
TRPM6 (human) = TRPM6 (human) (UniProt Q9BX84)
SIK1 (human) = SIK1 (human) (UniProt P57059)
KIT (human) = KIT (human) (UniProt P10721)
TAOK3 (human) = TAOK3 (human) (UniProt Q9H2K8)
Sequence of TAOK3 (human) (Q9H2K8 whole entry, looked up): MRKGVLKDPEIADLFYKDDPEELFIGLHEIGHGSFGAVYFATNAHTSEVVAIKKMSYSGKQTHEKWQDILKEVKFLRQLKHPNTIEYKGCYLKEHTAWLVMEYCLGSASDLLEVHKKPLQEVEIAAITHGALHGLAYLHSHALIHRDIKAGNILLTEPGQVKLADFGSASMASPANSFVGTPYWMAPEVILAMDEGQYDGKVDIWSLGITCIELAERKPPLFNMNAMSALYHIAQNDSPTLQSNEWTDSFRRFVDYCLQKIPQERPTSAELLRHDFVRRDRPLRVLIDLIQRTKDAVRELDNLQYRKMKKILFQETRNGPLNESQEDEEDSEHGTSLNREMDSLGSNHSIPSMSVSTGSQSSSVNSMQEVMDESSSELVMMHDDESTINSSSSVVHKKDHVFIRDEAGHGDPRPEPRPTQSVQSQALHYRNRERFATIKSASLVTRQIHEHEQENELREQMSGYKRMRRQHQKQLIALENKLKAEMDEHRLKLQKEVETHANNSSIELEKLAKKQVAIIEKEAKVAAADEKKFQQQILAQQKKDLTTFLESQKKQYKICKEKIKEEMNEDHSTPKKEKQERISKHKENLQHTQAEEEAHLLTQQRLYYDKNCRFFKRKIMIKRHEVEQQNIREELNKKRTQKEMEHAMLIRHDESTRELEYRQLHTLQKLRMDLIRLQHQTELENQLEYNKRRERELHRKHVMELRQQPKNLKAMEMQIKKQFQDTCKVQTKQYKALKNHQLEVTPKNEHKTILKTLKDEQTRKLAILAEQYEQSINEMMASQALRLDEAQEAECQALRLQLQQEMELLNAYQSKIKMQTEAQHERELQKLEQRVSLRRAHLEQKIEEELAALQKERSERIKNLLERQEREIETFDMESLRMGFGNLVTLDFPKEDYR

CIT (human) = CIT (human) (UniProt O14578)
[3] = system: FLT3 (human), P36888 [D835Y]
RIOK1 (human) = RIOK1 (human) (UniProt Q9BRS2)
CDK7 (human) = CDK7 (human) (UniProt P50613)
Sequence of CDK7 (human) (P50613 whole entry, looked up): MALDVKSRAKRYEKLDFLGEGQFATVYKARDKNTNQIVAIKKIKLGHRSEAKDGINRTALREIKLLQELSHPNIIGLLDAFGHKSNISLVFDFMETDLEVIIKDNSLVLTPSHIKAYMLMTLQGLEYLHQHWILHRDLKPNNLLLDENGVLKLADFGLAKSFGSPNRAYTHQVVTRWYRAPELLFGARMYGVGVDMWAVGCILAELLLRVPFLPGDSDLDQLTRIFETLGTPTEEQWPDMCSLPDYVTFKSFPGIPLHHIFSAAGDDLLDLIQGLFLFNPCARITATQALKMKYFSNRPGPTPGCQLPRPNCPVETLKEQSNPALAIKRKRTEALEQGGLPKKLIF

FGR (human) = FGR (human) (UniProt P09769)
SRPK1 (human) = SRPK1 (human) (UniProt Q96SB4)
LIMK1 (human) = LIMK1 (human) (UniProt P53667)
Sequence of LIMK1 (human) (P53667 whole entry, looked up): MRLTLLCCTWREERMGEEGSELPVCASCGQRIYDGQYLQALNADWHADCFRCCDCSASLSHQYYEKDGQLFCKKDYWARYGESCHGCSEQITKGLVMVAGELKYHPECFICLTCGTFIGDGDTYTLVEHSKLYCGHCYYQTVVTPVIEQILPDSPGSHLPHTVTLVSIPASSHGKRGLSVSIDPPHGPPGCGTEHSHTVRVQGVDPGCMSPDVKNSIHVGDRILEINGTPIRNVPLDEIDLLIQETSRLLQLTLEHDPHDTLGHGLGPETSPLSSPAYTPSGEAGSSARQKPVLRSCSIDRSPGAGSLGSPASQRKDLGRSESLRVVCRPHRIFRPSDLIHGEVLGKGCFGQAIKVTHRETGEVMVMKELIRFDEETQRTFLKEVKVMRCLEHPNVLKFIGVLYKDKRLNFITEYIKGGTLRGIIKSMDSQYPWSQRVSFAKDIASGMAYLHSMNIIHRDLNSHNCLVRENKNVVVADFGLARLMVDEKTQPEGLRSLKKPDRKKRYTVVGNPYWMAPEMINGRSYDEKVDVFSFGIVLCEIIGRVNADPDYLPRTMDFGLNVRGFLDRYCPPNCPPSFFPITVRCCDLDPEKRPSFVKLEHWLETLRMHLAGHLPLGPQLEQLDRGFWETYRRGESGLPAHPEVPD

PRKD2 (human) = PRKD2 (human) (UniProt Q9BZL6)
TLK2 (human) = TLK2 (human) (UniProt Q86UE8)
Sequence of TLK2 (human) (Q86UE8 whole entry, looked up): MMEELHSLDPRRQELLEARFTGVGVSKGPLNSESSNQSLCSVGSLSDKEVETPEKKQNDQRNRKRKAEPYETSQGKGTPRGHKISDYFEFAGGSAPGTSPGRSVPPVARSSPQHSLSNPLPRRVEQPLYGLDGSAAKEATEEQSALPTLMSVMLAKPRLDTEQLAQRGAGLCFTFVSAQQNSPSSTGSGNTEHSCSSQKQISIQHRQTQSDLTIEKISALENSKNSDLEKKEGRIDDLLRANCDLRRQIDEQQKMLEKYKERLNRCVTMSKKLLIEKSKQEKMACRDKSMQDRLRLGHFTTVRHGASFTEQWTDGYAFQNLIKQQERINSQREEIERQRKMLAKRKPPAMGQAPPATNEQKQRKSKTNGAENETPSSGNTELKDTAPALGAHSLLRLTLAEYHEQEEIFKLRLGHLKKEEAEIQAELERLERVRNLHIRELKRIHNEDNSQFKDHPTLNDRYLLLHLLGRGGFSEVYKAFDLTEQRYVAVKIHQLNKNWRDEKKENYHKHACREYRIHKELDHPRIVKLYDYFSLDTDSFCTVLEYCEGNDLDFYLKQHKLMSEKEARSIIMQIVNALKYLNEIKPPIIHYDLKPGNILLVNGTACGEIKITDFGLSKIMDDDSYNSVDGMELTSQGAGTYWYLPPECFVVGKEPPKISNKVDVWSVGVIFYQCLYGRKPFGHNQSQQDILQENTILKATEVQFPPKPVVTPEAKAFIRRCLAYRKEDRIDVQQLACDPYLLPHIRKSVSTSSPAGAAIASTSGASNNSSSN

RPS6KA3 KD1 (human) = RPS6KA3 KD1 (human) (UniProt P51812)
BMX (human) = BMX (human) (UniProt P51813)
CSK (human) = CSK (human) (UniProt P41240)
Sequence of CSK (human) (P41240 whole entry, looked up): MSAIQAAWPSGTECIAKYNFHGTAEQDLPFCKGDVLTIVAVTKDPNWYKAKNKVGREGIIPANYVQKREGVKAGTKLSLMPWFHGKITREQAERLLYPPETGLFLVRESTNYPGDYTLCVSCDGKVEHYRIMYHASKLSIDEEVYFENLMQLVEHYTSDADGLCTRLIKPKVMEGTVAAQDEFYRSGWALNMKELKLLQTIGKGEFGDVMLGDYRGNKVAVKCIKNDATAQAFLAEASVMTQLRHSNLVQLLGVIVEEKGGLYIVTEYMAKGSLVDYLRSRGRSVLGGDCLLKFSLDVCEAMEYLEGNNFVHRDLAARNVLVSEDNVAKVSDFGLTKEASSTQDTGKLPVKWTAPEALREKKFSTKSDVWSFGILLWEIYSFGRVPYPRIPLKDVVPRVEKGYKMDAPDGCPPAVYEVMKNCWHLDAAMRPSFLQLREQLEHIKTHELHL

MYLK3 (human) = MYLK3 (human) (UniProt Q32MK0)
MAP3K2 (human) = MAP3K2 (human) (UniProt Q9Y2U5)
CAMK2G (human) = CAMK2G (human) (UniProt Q13555)
Sequence of CAMK2G (human) (Q13555 whole entry, looked up): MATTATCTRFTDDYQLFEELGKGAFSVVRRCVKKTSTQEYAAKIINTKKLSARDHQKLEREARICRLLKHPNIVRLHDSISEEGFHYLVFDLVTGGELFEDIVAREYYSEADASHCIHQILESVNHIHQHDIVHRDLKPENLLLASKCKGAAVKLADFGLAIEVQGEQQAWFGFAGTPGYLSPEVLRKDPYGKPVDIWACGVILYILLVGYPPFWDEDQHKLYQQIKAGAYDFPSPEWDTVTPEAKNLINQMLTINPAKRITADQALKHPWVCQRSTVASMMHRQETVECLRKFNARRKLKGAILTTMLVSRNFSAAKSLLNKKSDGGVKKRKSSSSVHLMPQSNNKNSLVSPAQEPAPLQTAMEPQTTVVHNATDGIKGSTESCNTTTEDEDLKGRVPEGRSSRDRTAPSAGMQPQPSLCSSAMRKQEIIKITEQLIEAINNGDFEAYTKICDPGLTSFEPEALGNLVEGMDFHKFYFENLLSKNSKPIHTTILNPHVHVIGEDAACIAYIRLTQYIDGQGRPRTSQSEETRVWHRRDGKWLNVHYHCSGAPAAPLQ

BRSK1 (human) = BRSK1 (human) (UniProt Q8TDC3)
MARK4 (human) = MARK4 (human) (UniProt Q96L34)
MST4 (human) = MST4 (human) (UniProt Q9P289)
CDK4 CCND1 (human) = CDK4 CCND1 (human) (UniProt P11802+P24385)
HIPK1 (human) = HIPK1 (human) (UniProt Q86Z02)
FGFR4 (human) = FGFR4 (human) (UniProt P22455)
NEK1 (human) = NEK1 (human) (UniProt Q96PY6)
SIK3 (human) = SIK3 (human) (UniProt Q9Y2K2)
Sequence of SIK3 (human) (Q9Y2K2 whole entry, looked up): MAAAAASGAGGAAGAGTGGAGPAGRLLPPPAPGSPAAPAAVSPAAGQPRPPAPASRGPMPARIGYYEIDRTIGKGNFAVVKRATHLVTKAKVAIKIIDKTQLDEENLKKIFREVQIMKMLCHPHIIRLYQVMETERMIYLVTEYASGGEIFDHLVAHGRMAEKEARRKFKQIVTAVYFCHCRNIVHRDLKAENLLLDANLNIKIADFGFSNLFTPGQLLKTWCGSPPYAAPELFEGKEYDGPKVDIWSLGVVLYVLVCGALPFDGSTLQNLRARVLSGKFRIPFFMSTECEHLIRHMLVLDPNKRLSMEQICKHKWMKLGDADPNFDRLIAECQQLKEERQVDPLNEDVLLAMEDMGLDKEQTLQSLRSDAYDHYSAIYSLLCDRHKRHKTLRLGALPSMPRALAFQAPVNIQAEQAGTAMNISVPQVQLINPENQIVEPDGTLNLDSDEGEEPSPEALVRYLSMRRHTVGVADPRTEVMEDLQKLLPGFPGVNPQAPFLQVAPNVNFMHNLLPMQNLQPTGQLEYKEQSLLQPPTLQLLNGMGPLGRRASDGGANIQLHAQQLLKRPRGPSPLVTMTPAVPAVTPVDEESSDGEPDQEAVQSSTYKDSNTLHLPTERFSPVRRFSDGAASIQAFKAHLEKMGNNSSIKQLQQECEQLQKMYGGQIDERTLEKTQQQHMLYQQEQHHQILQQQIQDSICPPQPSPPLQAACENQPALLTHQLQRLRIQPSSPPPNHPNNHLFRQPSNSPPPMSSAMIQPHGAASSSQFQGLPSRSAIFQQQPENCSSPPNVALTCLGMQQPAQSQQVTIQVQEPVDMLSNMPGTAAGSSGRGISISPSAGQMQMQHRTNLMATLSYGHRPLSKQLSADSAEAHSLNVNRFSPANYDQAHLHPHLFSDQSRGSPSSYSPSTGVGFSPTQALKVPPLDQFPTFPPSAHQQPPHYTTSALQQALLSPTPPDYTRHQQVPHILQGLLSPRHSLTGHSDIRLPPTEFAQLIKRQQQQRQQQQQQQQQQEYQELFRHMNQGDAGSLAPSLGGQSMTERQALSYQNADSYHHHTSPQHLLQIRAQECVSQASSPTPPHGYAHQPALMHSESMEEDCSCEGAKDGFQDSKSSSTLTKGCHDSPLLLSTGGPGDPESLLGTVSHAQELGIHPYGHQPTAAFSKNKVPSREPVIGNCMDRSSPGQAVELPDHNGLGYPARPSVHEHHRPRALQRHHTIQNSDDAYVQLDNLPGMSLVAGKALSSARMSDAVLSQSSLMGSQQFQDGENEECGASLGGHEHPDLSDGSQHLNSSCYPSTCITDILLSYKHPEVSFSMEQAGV

PAK2 (human) = PAK2 (human) (UniProt Q13177)
[4] = system: RET (human), P07949 [M918T]
[5] = biological target: JAK3 JH1 catalytic (human) (UniProt P52333)
PRKCI (human) = PRKCI (human) (UniProt P41743)
MAP4K1 (human) = MAP4K1 (human) (UniProt Q92918)

SMILES: Cc1cc([C@@H](C)Nc2ccccc2C(=O)O)c2nc(N3CCOCC3)cc(=O)n2c1
- kinase still bound, per cent of control (MAPK13 (human)): 100%
- kinase still bound, per cent of control [1]: 80%
- kinase still bound, per cent of control [2]: 100%
- kinase still bound, per cent of control (PIP4K2C (human)): 94%
- kinase still bound, per cent of control (MAPK4 (human)): 82%
- kinase still bound, per cent of control (RIPK2 (human)): 52%
- kinase still bound, per cent of control (PAK1 (human)): 97%
- kinase still bound, per cent of control (DDR2 (human)): 100%
- kinase still bound, per cent of control (PAK3 (human)): 12%
- kinase still bound, per cent of control (IGF1R (human)): 100%
- kinase still bound, per cent of control (TRPM6 (human)): 64%
- kinase still bound, per cent of control (SIK1 (human)): 100%
- kinase still bound, per cent of control (KIT (human)): 69%
- kinase still bound, per cent of control (TAOK3 (human)): 95%
- kinase still bound, per cent of control (CIT (human)): 88%
- kinase still bound, per cent of control [3]: 24%
- kinase still bound, per cent of control (RIOK1 (human)): 75%
- kinase still bound, per cent of control (CDK7 (human)): 90%
- kinase still bound, per cent of control (FGR (human)): 76%
- kinase still bound, per cent of control (SRPK1 (human)): 100%
- kinase still bound, per cent of control (LIMK1 (human)): 100%
- kinase still bound, per cent of control (PRKD2 (human)): 97%
- kinase still bound, per cent of control (TLK2 (human)): 100%
- kinase still bound, per cent of control (RPS6KA3 KD1 (human)): 100%
- kinase still bound, per cent of control (BMX (human)): 82%
- kinase still bound, per cent of control (CSK (human)): 98%
- kinase still bound, per cent of control (MYLK3 (human)): 82%
- kinase still bound, per cent of control (MAP3K2 (human)): 88%
- kinase still bound, per cent of control (CAMK2G (human)): 87%
- kinase still bound, per cent of control (BRSK1 (human)): 100%
- kinase still bound, per cent of control (MARK4 (human)): 100%
- kinase still bound, per cent of control (MST4 (human)): 100%
- kinase still bound, per cent of control (CDK4 CCND1 (human)): 38%
- kinase still bound, per cent of control (HIPK1 (human)): 87%
- kinase still bound, per cent of control (FGFR4 (human)): 40%
- kinase still bound, per cent of control (NEK1 (human)): 100%
- kinase still bound, per cent of control (SIK3 (human)): 87%
- kinase still bound, per cent of control (PAK2 (human)): 100%
- kinase still bound, per cent of control [4]: 100%
- kinase still bound, per cent of control [5]: 100%
- kinase still bound, per cent of control (PRKCI (human)): 94%
- kinase still bound, per cent of control (MAP4K1 (human)): 90%
